Test results: patent US8361796B2, “Method for generating primate cardiovascular progenitor cells for clinical use from primate embryonic stem cells or embryonic-like state cells, and their applications” (Assistance Publique—Hopitaux de Paris, priority 2008, dated 2013)

Columns and labels:
CD15+ cells = assay: Differentiation of CD15+ sorted cells treated with VEGF or PDGF; type: cell-based, primate; conditions: 10 or 50 ng/ml
Method: FIGS. 11A, 11B and 11C: CD15+ cells express cardiac, endothelial and vascular proteins markers; CD15+ sorted cells were cultured for 5 days on MEF and immunostained with the indicated markers; some cells were treated with VEGF or PDGF and immunostained with anti smooth muscle actin and myosin or CD31. Some others were cultured with human fibroblast isolated from the myocardium and stained with an anti-actinin antibody.
When cultured on human cardiac fibroblasts, CD15+ cells differentiate into actinin-positive cardiomyocytes.

PDGF receptor = conditions: cited from earlier work
EGF receptor = EGF receptor (Homo sapiens, UniProt P00533); conditions: cited from earlier work
Chain of EGF receptor (P00533 25-1210): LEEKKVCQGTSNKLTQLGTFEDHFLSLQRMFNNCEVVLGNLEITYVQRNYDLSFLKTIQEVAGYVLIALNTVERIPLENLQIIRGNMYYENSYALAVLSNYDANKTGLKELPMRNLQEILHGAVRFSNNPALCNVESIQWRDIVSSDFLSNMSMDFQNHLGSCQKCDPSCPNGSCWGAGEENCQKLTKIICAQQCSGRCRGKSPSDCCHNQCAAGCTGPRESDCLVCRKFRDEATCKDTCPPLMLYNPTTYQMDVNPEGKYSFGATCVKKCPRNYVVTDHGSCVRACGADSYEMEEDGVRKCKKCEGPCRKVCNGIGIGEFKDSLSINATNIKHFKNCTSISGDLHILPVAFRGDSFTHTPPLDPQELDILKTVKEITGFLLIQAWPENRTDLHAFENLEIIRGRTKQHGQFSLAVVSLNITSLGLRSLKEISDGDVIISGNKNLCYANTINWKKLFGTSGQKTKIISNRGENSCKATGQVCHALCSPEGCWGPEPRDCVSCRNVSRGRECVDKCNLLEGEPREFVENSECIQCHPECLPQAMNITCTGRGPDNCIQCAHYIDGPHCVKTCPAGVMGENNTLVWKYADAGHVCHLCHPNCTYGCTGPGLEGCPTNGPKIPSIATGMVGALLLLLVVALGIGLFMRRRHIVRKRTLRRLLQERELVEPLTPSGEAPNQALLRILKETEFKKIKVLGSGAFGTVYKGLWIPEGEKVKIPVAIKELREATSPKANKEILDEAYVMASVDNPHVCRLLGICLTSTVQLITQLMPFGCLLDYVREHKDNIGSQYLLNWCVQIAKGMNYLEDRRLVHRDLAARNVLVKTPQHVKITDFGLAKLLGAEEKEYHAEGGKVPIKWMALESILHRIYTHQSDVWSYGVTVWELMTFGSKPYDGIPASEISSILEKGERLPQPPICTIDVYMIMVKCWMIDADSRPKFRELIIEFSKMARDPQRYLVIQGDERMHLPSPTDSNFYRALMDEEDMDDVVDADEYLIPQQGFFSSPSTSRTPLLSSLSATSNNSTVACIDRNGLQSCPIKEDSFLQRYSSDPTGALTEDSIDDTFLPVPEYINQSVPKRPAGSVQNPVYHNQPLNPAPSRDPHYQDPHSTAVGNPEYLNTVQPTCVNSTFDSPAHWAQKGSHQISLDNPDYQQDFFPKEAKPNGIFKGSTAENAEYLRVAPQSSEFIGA

insulin receptor = insulin receptor (Homo sapiens, UniProt P06213); conditions: cited from earlier work
Chain of insulin receptor (P06213 28-1382, species assumed): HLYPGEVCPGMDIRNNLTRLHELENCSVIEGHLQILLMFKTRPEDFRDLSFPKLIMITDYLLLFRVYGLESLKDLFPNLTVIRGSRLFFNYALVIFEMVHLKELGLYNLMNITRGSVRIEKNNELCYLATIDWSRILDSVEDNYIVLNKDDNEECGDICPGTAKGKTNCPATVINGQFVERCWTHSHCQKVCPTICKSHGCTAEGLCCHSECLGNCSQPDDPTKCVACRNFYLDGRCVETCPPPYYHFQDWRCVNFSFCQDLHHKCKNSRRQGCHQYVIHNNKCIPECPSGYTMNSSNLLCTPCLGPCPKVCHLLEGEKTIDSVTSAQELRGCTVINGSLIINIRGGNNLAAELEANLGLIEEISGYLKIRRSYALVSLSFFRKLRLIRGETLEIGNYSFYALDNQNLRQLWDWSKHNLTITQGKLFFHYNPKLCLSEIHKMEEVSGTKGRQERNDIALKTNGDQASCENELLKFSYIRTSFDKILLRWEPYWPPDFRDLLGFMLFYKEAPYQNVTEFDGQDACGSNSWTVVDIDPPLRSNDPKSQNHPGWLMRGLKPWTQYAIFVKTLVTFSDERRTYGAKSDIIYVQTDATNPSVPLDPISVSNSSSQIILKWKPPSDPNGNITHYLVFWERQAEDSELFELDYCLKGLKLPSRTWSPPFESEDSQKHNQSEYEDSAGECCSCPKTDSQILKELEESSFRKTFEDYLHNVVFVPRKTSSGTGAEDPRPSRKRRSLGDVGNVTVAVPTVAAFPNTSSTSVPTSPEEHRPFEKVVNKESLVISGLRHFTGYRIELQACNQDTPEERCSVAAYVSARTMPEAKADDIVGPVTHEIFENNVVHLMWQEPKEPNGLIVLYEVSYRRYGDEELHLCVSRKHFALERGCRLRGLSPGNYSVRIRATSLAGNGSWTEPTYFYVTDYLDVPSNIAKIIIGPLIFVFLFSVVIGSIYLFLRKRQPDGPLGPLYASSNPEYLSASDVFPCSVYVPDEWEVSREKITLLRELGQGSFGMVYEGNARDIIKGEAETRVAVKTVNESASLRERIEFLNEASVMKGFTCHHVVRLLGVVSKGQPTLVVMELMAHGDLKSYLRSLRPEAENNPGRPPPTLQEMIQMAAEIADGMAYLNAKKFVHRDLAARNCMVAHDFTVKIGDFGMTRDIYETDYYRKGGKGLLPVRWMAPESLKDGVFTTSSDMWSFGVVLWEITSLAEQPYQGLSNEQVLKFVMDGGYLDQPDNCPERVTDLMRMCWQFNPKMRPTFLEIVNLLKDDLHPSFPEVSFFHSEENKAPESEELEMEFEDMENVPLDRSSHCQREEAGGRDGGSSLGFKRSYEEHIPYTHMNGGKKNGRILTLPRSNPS

[1] = biological target: fibroblast growth factor receptor 1 (FGFR1) (Homo sapiens, UniProt P11362); conditions: read-out: IC50, tyrosine kinase activity of FGFR1; in the presence of 1 mM ATP; cited from earlier work
Chain of fibroblast growth factor receptor 1 (FGFR1) (P11362 22-822, species assumed): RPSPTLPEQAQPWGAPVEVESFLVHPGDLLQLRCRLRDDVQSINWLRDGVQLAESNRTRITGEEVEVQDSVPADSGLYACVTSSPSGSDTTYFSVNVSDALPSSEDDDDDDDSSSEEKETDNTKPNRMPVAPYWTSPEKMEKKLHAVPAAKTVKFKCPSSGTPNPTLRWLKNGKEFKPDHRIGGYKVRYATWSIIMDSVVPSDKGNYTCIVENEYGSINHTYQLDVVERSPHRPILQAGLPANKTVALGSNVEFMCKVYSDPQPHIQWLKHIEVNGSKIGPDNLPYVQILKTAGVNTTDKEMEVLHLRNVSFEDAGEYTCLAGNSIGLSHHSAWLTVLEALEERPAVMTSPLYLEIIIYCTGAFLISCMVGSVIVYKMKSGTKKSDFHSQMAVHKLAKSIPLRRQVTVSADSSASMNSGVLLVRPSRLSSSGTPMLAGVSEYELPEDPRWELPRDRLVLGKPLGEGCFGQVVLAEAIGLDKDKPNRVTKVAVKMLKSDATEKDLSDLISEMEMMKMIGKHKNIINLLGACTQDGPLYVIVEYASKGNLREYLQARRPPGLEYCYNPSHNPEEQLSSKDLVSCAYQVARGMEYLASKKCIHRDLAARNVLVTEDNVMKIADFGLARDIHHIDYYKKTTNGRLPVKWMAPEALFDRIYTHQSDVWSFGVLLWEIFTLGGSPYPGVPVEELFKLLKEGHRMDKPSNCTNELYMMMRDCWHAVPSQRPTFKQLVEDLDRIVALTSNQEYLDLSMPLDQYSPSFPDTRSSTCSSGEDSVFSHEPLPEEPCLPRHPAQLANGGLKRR

ERK1 and ERK2 = conditions: read-out: IC50, aFGF-induced tyrosine phosphorylation of ERK1 and ERK2; cited from earlier work

Method for HUES-1 cells: HES cells were treated for 48 hrs with 10 ng/ml BMP2 in the presence or absence of 1 μM SU5402, a FGF receptor inhibitor, in low KO™SR (5%) containing KO™-DMEM.
Gene induction was tested using real time Q-PCR.

| Compound | fate of CD15+ cells (CD15+ cells) | inhibition of tyrosine phosphorylation of the PDGF receptor (PDGF receptor) | inhibition of the kinase activity of the EGF receptor (EGF receptor) | inhibition of phosphorylation of the insulin receptor (insulin receptor) | enhancement of BMP2 induction of mesodermal and cardiac genes (HUES-1 cells; 48 hrs, 10 ng/ml BMP2 with 1 μM SU5402 versus BMP2 alone) | enhancement of BMP2 instructive action (HUES-1 cells; defined (KOSR) medium, SU5402 added to BMP2) | IC50 [1] [µM] | IC50 (ERK1 and ERK2) [µM] |
| --- | --- | --- | --- | --- | --- | --- | --- | --- |
| PDGF | smooth muscle cells |  |  |  |  |  |  |  |
| VEGF | endothelial |  |  |  |  |  |  |  |
| Cc1c[nH]c(C=C2C(=O)Nc3ccccc32)c1CCC(=O)O [SU5402, 3-[3-(2-Carboxyethyl)-4-methylpyrrol-2-methylidenyl]-2-indolinone] |  | only a weak inhibitor | does not inhibit | does not inhibit | 3-10 folds | dramatically enhanced | 10 to 20 | 10 to 20 |
